Columns and labels:
Type in all cases: cell-based
[1] = system: A. suillum; assay: Fe(II) oxidation by A. suillum in anoxic culture with nitrate as electron acceptor; details: 10 mM Fe(II) as FeCl2, 10 mM acetate as cosubstrate, within 7 days
Protocol: A. suillum readily oxidized (10 mM) Fe(II) in the form of FeCl2 with nitrate as the electron acceptor under strict anaerobic conditions (FIG. 8). With 10 mM acetate as a cosubstrate, more than 70% of the added iron was oxidized within 7 days. No Fe(II) was oxidized in the absence of cells or if the nitrate was omitted (data not shown). Fe(II) oxidation was initiated after complete mineralization of acetate to CO2, and growth was not associated with this metabolism.
When acetate was added as an additional carbon and energy source, cell density increased concomitant with acetate oxidation. Fe(II) oxidation occurred after acetate had been depleted and the culture had reached stationary phase (FIG. 8).

[2] = system: Desulfovibrio vulgaris; assay: Inhibition of sulfidogenesis (sulfate reduction to sulfide) by D. vulgaris cultures
Protocol: Twelve tubes of basal anaerobic medium containing 15 mM lactate and 15 mM sulfate were inoculated with an active culture of D. vulgaris and incubated for 6 hours at 30° C., until a visible increase in optical density was observed. After six hours, the tubes were further inoculated with A. suillum and 15 mM chlorate prior to incubation overnight at 30° C., as outlined in Table 2.

[3] = system: marine sediment slurry microcosms; assay: Sulfide inhibition in marine sediment slurry microcosms; details: chlorate added with Dechloromarinus strain NSS, incubation over 250 hours
From the text: In the absence of chlorate and Dechloromarinus strain NSS sulfide is readily produced.

## [Cl][Fe][Cl] [FeCl2, Ferrous chloride]
[1]
  added iron oxidized: more than 70%

## [O-][Cl+2]([O-])O [chlorate]
[2]; 15 mM chlorate alone, 24 hours, lactate as electron donor
  sulfide production by D. vulgaris relative to control cells incubated without chlorate: 49%
[2]; 15 mM chlorate together with A. suillum, 24-hour incubation
  sulfide production by D. vulgaris relative to control cells incubated in the absence of A. suillum and chlorate: 17%
[2]; relatively low concentrations (15 mM)
  antimicrobial activity against D. vulgaris: has antimicrobial activity against D. vulgaris
[2]; treated with A. suillum (PS) and chlorate at 48 hours, relative to untreated control
  time course of sulfidogenesis by D. vulgaris (FIG. 14): immediate inhibition of sulfide production and removal of sulfide from the medium
[3]
  sulfide production in marine sediment slurry microcosms (FIG. 12): sulfide inhibition
